Experimental data published in ChEMBL document CHEMBL1201862, “PubChem BioAssay data set” (2004).
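Interpolation was linear, between the two tested concentrations surrounding the appropriate level; five concentrations were tested over 48 hours in 96-well plates. GI50: concentration for 50% inhibition of growth.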 The source made the active and inactive calls. Rule as the data show it: active = GI50 up to about 1.1 µM and inactive = higher. Non-standard residues stand in square brackets, D forms with d. Residues, ends and D or L forms follow the SMILES beside them. ξ: configuration not given here. Pen = CC(C)(S)[C@H](N)C(=O)O; ξL = CC(C)CC(N)C(=O)O

Assays:
Test in all cases: inhibition of tumour cell growth, NCI panel, 48 h
786-0 = system: 786-0
A498 = system: A498
A549 = system: A549
ACHN = system: ACHN
CAKI-1 = system: CAKI-1
CCRF-CEM = system: CCRF-CEM
COLO 205 = system: COLO 205
DLD-1 = system: DLD-1
DMS-114 = system: DMS-114
DMS-273 = system: DMS-273
EKVX = system: EKVX
HCC 2998 = system: HCC 2998
HCT-116 = system: HCT-116
HL-60 = system: HL-60
HOP-18 = system: HOP-18
HOP-62 = system: HOP-62
HOP-92 = system: HOP-92
HT-29 = system: HT-29
IGROV-1 = system: IGROV-1
K562 = system: K562
KM-20L2 = system: KM-20L2
KM12 = system: KM12
LOX IMVI = system: LOX IMVI
LXFL 529 = system: LXFL 529
M14 = system: M14
M19-MEL = system: M19-MEL
MOLT-4 = system: MOLT-4
Malme-3M = system: Malme-3M
NCI-H226 = system: NCI-H226
NCI-H23 = system: NCI-H23
NCI-H522 = system: NCI-H522
OVCAR-3 = system: OVCAR-3
OVCAR-4 = system: OVCAR-4
OVCAR-5 = system: OVCAR-5
OVCAR-8 = system: OVCAR-8
RXF 393 = system: RXF 393
SF-268 = system: SF-268
SF-295 = system: SF-295
SF-539 = system: SF-539
SK-MEL-28 = system: SK-MEL-28
SK-MEL-2 = system: SK-MEL-2
SK-MEL-5 = system: SK-MEL-5
SK-OV-3 = system: SK-OV-3
SN12C = system: SN12C
SNB-19 = system: SNB-19
SNB-75 = system: SNB-75
SNB-78 = system: SNB-78
SR = system: SR
SW-620 = system: SW-620
TK-10 = system: TK-10
U-251 = system: U-251
UACC-257 = system: UACC-257
UACC-62 = system: UACC-62
UO-31 = system: UO-31
XF498 = system: XF498
HCT-15 = system: HCT-15
MCF7 = system: MCF7
NCI-H460 = system: NCI-H460
NCI/ADR-RES = system: NCI/ADR-RES
RPMI-8226 = system: RPMI-8226

## CCOC(=N)CC(=O)c1ccccc1
786-0
  GI50: > 100 µM (inactive)
A498
  GI50: > 100 µM (inactive)
A549
  GI50: > 100 µM (inactive)
ACHN
  GI50: > 100 µM (inactive)
CAKI-1
  GI50: > 100 µM (inactive)
CCRF-CEM
  GI50: > 100 µM (inactive)
COLO 205
  GI50: > 100 µM (inactive)
DLD-1
  GI50: > 100 µM (inactive)
DMS-114
  GI50: > 100 µM (inactive)
DMS-273
  GI50: > 100 µM (inactive)
EKVX
  GI50: > 100 µM (inactive)
HCC 2998
  GI50: > 100 µM (inactive)
HCT-116
  GI50: > 100 µM (inactive)
HL-60
  GI50: > 100 µM (inactive)
HOP-18
  GI50: > 100 µM (inactive)
HOP-62
  GI50: > 100 µM (inactive)
HOP-92
  GI50: > 100 µM (inactive)
HT-29
  GI50: > 100 µM (inactive)
IGROV-1
  GI50: > 100 µM (inactive)
K562
  GI50: > 100 µM (inactive)
KM-20L2
  GI50: > 100 µM (inactive)
KM12
  GI50: > 100 µM (inactive)
LOX IMVI
  GI50: > 100 µM (inactive)
LXFL 529
  GI50: > 100 µM (inactive)
M14
  GI50: > 100 µM (inactive)
M19-MEL
  GI50: > 100 µM (inactive)
MOLT-4
  GI50: > 100 µM (inactive)
Malme-3M
  GI50: > 100 µM (inactive)
NCI-H226
  GI50: > 100 µM (inactive)
NCI-H23
  GI50: > 100 µM (inactive)
NCI-H522
  GI50: > 100 µM (inactive)
OVCAR-3
  GI50: > 100 µM (inactive)
OVCAR-4
  GI50: > 100 µM (inactive)
OVCAR-5
  GI50: > 100 µM (inactive)
OVCAR-8
  GI50: > 100 µM (inactive)
RXF 393
  GI50: > 100 µM (inactive)
SF-268
  GI50: > 100 µM (inactive)
SF-295
  GI50: > 100 µM (inactive)
SF-539
  GI50: > 100 µM (inactive)
SK-MEL-28
  GI50: > 100 µM (inactive)
SK-MEL-2
  GI50: > 100 µM (inactive)
SK-MEL-5
  GI50: > 100 µM (inactive)
SK-OV-3
  GI50: > 100 µM (inactive)
SN12C
  GI50: > 100 µM (inactive)
SNB-19
  GI50: > 100 µM (inactive)
SNB-75
  GI50: > 100 µM (inactive)
SNB-78
  GI50: > 100 µM (inactive)
SR
  GI50: > 100 µM (inactive)
SW-620
  GI50: > 100 µM (inactive)
TK-10
  GI50: > 100 µM (inactive)
U-251
  GI50: > 100 µM (inactive)
UACC-257
  GI50: > 100 µM (inactive)
UACC-62
  GI50: > 100 µM (inactive)
UO-31
  GI50: > 100 µM (inactive)
XF498
  GI50: > 100 µM (inactive)

## CSCC[C@H](NC(=O)C(CC(C)C)NC(=O)[C@H](Cc1c[nH]cn1)NC(=O)CNC(=O)[C@@H](NC(=O)[C@@H](C)NC(=O)[C@H](Cc1c[nH]c2ccccc12)NC(=O)[C@H](CCC(N)=O)NC(=O)[C@@H](N)CC(N)=O)C(C)(C)SC)C(N)=O (stereo partly drawn) (H-NQW[dA][Pen](Me)GH[ξL]M-NH2)
A498
  GI50: > 100 µM (inactive)
A549
  GI50: > 100 µM (inactive)
CAKI-1
  GI50: > 100 µM (inactive)
CCRF-CEM
  GI50: > 100 µM (inactive)
COLO 205
  GI50: > 100 µM (inactive)
DLD-1
  GI50: > 100 µM (inactive)
DMS-114
  GI50: > 100 µM (inactive)
DMS-273
  GI50: > 100 µM (inactive)
EKVX
  GI50: > 100 µM (inactive)
HCC 2998
  GI50: > 100 µM (inactive)
HCT-116
  GI50: > 100 µM (inactive)
HCT-15
  GI50: > 100 µM
HL-60
  GI50: > 100 µM (inactive)
HOP-18
  GI50: > 100 µM (inactive)
HOP-62
  GI50: > 100 µM (inactive)
HOP-92
  GI50: > 100 µM (inactive)
HT-29
  GI50: > 100 µM (inactive)
IGROV-1
  GI50: > 100 µM (inactive)
K562
  GI50: > 100 µM (inactive)
KM-20L2
  GI50: > 100 µM (inactive)
KM12
  GI50: > 100 µM (inactive)
LOX IMVI
  GI50: > 100 µM (inactive)
M19-MEL
  GI50: > 100 µM (inactive)
MCF7
  GI50: > 100 µM (inactive)
MOLT-4
  GI50: > 100 µM (inactive)
Malme-3M
  GI50: > 100 µM (inactive)
NCI-H226
  GI50: > 100 µM (inactive)
NCI-H23
  GI50: > 100 µM (inactive)
NCI-H460
  GI50: > 100 µM (inactive)
NCI-H522
  GI50: > 100 µM (inactive)
NCI/ADR-RES
  GI50: > 100 µM (inactive)
OVCAR-3
  GI50: > 100 µM (inactive)
OVCAR-4
  GI50: > 100 µM (inactive)
OVCAR-5
  GI50: > 100 µM (inactive)
OVCAR-8
  GI50: > 100 µM (inactive)
RXF 393
  GI50: > 100 µM (inactive)
SF-268
  GI50: > 100 µM (inactive)
SF-295
  GI50: > 100 µM (inactive)
SF-539
  GI50: > 100 µM (inactive)
SK-MEL-28
  GI50: > 100 µM (inactive)
SK-MEL-2
  GI50: > 100 µM (inactive)
SK-MEL-5
  GI50: > 100 µM (inactive)
SK-OV-3
  GI50: > 100 µM (inactive)
SN12C
  GI50: > 100 µM (inactive)
SNB-19
  GI50: > 100 µM (inactive)
SNB-75
  GI50: > 100 µM (inactive)
SNB-78
  GI50: > 100 µM (inactive)
SW-620
  GI50: > 100 µM (inactive)
U-251
  GI50: > 100 µM (inactive)
UACC-257
  GI50: > 100 µM (inactive)
UACC-62
  GI50: > 100 µM (inactive)
UO-31
  GI50: > 100 µM (inactive)
XF498
  GI50: > 100 µM (inactive)

## C[n+]1ccc(-c2cc[n+](C)cc2)cc1 [PARAQUAT DICHLORIDE]
786-0
  GI50: > 100 µM (inactive)
A498
  GI50: > 32.6 µM (inactive)
A549
  GI50: 12.1 µM (inactive)
ACHN
  GI50: > 26.4 µM (inactive)
CAKI-1
  GI50: > 100 µM (inactive)
CCRF-CEM
  GI50: > 48.4 µM (inactive)
COLO 205
  GI50: 14.8 µM (inactive)
DLD-1
  GI50: > 30.3 µM (inactive)
DMS-114
  GI50: 8.75 µM (inactive)
DMS-273
  GI50: 10.5 µM (inactive)
EKVX
  GI50: > 30.6 µM (inactive)
HCC 2998
  GI50: 14.5 µM (inactive)
HCT-15
  GI50: > 32.4 µM
HL-60
  GI50: 10 µM (inactive)
HOP-18
  GI50: > 100 µM (inactive)
HOP-62
  GI50: 14.7 µM (inactive)
HOP-92
  GI50: > 44.5 µM (inactive)
HT-29
  GI50: 10.8 µM (inactive)
IGROV-1
  GI50: 18 µM (inactive)
K562
  GI50: > 100 µM (inactive)
KM-20L2
  GI50: 17 µM (inactive)
KM12
  GI50: 5.83 µM (inactive)
LOX IMVI
  GI50: > 22.9 µM (inactive)
LXFL 529
  GI50: > 37.1 µM (inactive)
M14
  GI50: 13.9 µM (inactive)
M19-MEL
  GI50: 9.42 µM (inactive)
MOLT-4
  GI50: > 34.5 µM (inactive)
Malme-3M
  GI50: 0.265 µM (active)
NCI-H226
  GI50: 8.43 µM (inactive)
NCI-H23
  GI50: 12.2 µM (inactive)
NCI-H460
  GI50: 9.42 µM (inactive)
OVCAR-3
  GI50: 14 µM (inactive)
OVCAR-4
  GI50: 1.55 µM (inactive)
OVCAR-5
  GI50: 19.7 µM (inactive)
OVCAR-8
  GI50: > 30 µM (inactive)
RPMI-8226
  GI50: > 70 µM (inactive)
RXF 393
  GI50: 0.644 µM (active)
SF-268
  GI50: > 22.5 µM (inactive)
SF-295
  GI50: > 19.6 µM (inactive)
SF-539
  GI50: 20.7 µM (inactive)
SK-MEL-2
  GI50: 2.69 µM (inactive)
SK-MEL-5
  GI50: 11.5 µM (inactive)
SK-OV-3
  GI50: > 24.7 µM (inactive)
SN12C
  GI50: 10.2 µM (inactive)
SNB-19
  GI50: 4.99 µM (inactive)
SNB-75
  GI50: 33.5 µM (inactive)
SNB-78
  GI50: > 22.3 µM (inactive)
SR
  GI50: 11.6 µM (inactive)
SW-620
  GI50: > 42 µM (inactive)
TK-10
  GI50: > 53.6 µM (inactive)
U-251
  GI50: > 32.8 µM (inactive)
UACC-257
  GI50: 1.5 µM (inactive)
UACC-62
  GI50: 7.19 µM (inactive)
UO-31
  GI50: > 100 µM (inactive)
XF498
  GI50: 3.74 µM (inactive)
